Results on five compounds are retold here after patent US20240408216A1, “PROTEIN INHIBITOR OR DEGRADING AGENT, PHARMACEUTICAL COMPOSITION CONTAINING SAME AND PHARMACEUTICAL USE” (JING MEDICINE TECHNOLOGY (SHANGHAI) LTD., priority 2021, published 2024).

Structures are written as SMILES. Some results are limits rather than exact numbers.

T1 sequence (P00533 with tags, fused parts or gaps DEL746-750/C797S, form open): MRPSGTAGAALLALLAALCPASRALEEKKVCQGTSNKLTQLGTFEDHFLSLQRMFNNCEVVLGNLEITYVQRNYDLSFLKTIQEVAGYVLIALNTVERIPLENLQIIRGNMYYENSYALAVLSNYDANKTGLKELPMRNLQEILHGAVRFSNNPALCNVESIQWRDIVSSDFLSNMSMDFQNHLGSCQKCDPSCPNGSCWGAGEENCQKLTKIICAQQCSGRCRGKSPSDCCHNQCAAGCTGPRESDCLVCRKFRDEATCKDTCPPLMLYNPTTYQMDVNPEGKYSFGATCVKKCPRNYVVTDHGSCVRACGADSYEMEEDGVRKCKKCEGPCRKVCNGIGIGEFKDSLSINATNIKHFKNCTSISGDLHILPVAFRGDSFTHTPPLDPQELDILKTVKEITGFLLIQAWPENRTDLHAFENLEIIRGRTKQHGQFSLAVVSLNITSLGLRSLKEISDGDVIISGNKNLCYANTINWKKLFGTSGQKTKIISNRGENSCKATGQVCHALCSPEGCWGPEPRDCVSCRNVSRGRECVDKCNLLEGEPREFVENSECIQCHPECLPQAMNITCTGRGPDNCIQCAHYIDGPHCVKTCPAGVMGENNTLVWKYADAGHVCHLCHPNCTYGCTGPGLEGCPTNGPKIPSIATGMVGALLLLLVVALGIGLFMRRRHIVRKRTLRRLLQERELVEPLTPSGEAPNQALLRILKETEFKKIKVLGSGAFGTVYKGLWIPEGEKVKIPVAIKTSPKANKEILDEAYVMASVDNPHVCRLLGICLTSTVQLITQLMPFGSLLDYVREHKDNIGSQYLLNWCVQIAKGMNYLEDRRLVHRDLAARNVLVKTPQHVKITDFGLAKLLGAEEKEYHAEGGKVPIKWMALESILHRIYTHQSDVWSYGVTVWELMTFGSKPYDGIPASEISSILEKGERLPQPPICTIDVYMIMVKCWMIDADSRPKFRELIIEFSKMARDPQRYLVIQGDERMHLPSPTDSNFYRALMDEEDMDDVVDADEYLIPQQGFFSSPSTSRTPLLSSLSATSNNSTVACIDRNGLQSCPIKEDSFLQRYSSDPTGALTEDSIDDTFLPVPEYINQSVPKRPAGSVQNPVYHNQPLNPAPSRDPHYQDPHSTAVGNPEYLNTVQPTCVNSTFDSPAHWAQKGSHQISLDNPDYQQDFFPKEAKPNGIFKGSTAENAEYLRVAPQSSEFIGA

The subject of the first test is BaF3 (EGFR Del19/T790M/C797S). The test can be described thus: Cell proliferation IC50 assay (Cell Titer GLO), BaF3 DTC cells. As to conditions: Mus musculus, Ba/F3 EGFR-Del19/T790M/C797S, Table 6, 72 h. In kind it is cell-based. The method, then: IC50 of compounds in the present invention was determined by Cell Titer GLO reagent from Promega. The procedures are as follows:
Tumor cells were cultured in specified medium in an incubator at 37° C. and 5% CO2. The cells were passaged periodically. Cells at the logarithmic growth phase were collected for plating at a density of 2000-4000 cells/well. The next day, the compounds of the present invention were serially diluted and added to the cells, with DMSO being the negative control and the culture media without cells being the blank control. The plate was incubated in the incubator for 72 h. The cell viability assay was performed by adding the detection reagents to the cell culture media according to Cell Titer GLO reagent instructions and detecting luminescent signals on an EnVision microplate reader (PerkinElmer).
Inhibition of cell growth by the compounds of the present invention was plotted by Prism Graphpad software for statistically calculating the IC50 of the compound of the present invention.
(In general: ATP-based viability assays read luminescence as a measure of living cells.)
The compound `CCc1cc(Nc2ncc(-n3cccn3)c(Nc3ccccc3P(C)(C)=O)n2)c(OC)cc1N1CCC(N2CCN(CCOc3cccc4c3CN(C3CCC(=O)NC3=O)C4=O)CC2)CC1` (stereo not shown) [Example E165] returned an IC50 of 780 nM.

`COc1cc(N2CCC(N3CCN(CCC#Cc4cccc5c4CN(C4CCC(=O)NC4=O)C5=O)CC3)CC2)c(CO)cc1Nc1ncc(Cl)c(Nc2ccccc2P(C)(C)=O)n1` (stereo not shown) [Example E91] gave an IC50 of 18.5 nM.

On to `COc1cc2c(cc1Nc1ncc(Cl)c(Nc3ccccc3P(C)(C)=O)n1)CCN(C1CCN(CCCCOc3cccc4c3CN(C3CCC(=O)NC3=O)C4=O)CC1)C2` (stereo not shown) [Example E86], for which 40.7 nM corresponded to half-maximal inhibition (IC50).

As for `CCc1cc(Nc2ncc(Cl)c(Nc3ccccc3P(C)(C)=O)n2)c(OC)cc1N1CCC(N2CCN(C(=O)CNc3cccc4c3C(=O)N(C3CCC(=O)NC3=O)C4=O)CC2)CC1` (stereo not shown) [Example E112], half-maximal inhibition (IC50) was put at 18.4 nM.

`CCc1cc(Nc2ncc(Cl)c(Nc3ccccc3P(C)(C)=O)n2)c(OC)cc1N1CCC(N2CCN([C@H]3C[C@@H](Oc4cc5c(cc4F)C(=O)N(C4CCC(=O)NC4=O)C5)C3)CC2)CC1` (stereo partly shown) [Example E67]: the IC50 was 4.09 nM.

For the next test, the system named is BaF3 (EGFR L858R/T790M/C797S). Put plainly: Cell proliferation IC50 assay (Cell Titer GLO), BaF3 LTC cells. In kind it is cell-based. As to conditions: Mus musculus, Ba/F3 EGFR, Table 6, 72 h. The method, boiled down: (§1)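 Cells plated at 2000-4000 cells/well and treated the next day with serially diluted compound for 72 h at 37° C, 5% CO2. Viability read by CellTiter-Glo luminescence, normalised to DMSO and cell-free blank controls; IC50 fitted from growth inhibition curves.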
Compound `CCc1cc(Nc2ncc(-n3cccn3)c(Nc3ccccc3P(C)(C)=O)n2)c(OC)cc1N1CCC(N2CCN(CCOc3cccc4c3CN(C3CCC(=O)NC3=O)C4=O)CC2)CC1` (stereo not shown) [Example E165] displayed an IC50 above 4000 nM.

Compound `COc1cc(N2CCC(N3CCN(CCC#Cc4cccc5c4CN(C4CCC(=O)NC4=O)C5=O)CC3)CC2)c(CO)cc1Nc1ncc(Cl)c(Nc2ccccc2P(C)(C)=O)n1` (stereo not shown) [Example E91] had an IC50 of 115 nM.

The compound `COc1cc2c(cc1Nc1ncc(Cl)c(Nc3ccccc3P(C)(C)=O)n1)CCN(C1CCN(CCCCOc3cccc4c3CN(C3CCC(=O)NC3=O)C4=O)CC1)C2` (stereo not shown) [Example E86] registered an IC50 of 197 nM.

For `CCc1cc(Nc2ncc(Cl)c(Nc3ccccc3P(C)(C)=O)n2)c(OC)cc1N1CCC(N2CCN(C(=O)CNc3cccc4c3C(=O)N(C3CCC(=O)NC3=O)C4=O)CC2)CC1` (stereo not shown) [Example E112], it took 85.4 nM to reach half-maximal inhibition (IC50).

In turn, `CCc1cc(Nc2ncc(Cl)c(Nc3ccccc3P(C)(C)=O)n2)c(OC)cc1N1CCC(N2CCN([C@H]3C[C@@H](Oc4cc5c(cc4F)C(=O)N(C4CCC(=O)NC4=O)C5)C3)CC2)CC1` (stereo partly shown) [Example E67] registered a concentration for half-maximal inhibition (IC50) of 20.6 nM.

Another test addresses T1, BaF3 (EGFR Del19/C797S) (Homo sapiens, UniProt P00533, C797S, cells depend on it, form not given).
T1 construct: BaF3 (EGFR Del19/C797S)|DC|RPMI1640 + 10% FBS
The test can be described thus: Cell proliferation IC50 assay (Cell Titer GLO), BaF3 DC cells. The format is cell-based, mouse. As to conditions: Table 6, 72 h. The method in brief:
as §1
The compound `CCc1cc(Nc2ncc(-n3cccn3)c(Nc3ccccc3P(C)(C)=O)n2)c(OC)cc1N1CCC(N2CCN(CCOc3cccc4c3CN(C3CCC(=O)NC3=O)C4=O)CC2)CC1` (stereo not shown) [Example E165] came in with an IC50 of 4.2 nM.

The compound `COc1cc(N2CCC(N3CCN(CCC#Cc4cccc5c4CN(C4CCC(=O)NC4=O)C5=O)CC3)CC2)c(CO)cc1Nc1ncc(Cl)c(Nc2ccccc2P(C)(C)=O)n1` (stereo not shown) [Example E91] gave an IC50 of 5.2 nM.

As to `COc1cc2c(cc1Nc1ncc(Cl)c(Nc3ccccc3P(C)(C)=O)n1)CCN(C1CCN(CCCCOc3cccc4c3CN(C3CCC(=O)NC3=O)C4=O)CC1)C2` (stereo not shown) [Example E86], the IC50 was 33 nM.

`CCc1cc(Nc2ncc(Cl)c(Nc3ccccc3P(C)(C)=O)n2)c(OC)cc1N1CCC(N2CCN(C(=O)CNc3cccc4c3C(=O)N(C3CCC(=O)NC3=O)C4=O)CC2)CC1` (stereo not shown) [Example E112] came in with an IC50 of 10.7 nM.

For the compound `CCc1cc(Nc2ncc(Cl)c(Nc3ccccc3P(C)(C)=O)n2)c(OC)cc1N1CCC(N2CCN([C@H]3C[C@@H](Oc4cc5c(cc4F)C(=O)N(C4CCC(=O)NC4=O)C5)C3)CC2)CC1` (stereo partly shown) [Example E67], it took 4.4 nM to reach half-maximal inhibition (IC50).

The subject of a further test is BaF3 (EGFR WT). The test can be described thus: Cell proliferation IC50 assay (Cell Titer GLO), BaF3 WT cells. In kind it is cell-based. As to conditions: Mus musculus, Ba/F3 EGFR, Table 6, 10 ng/ml EGF, 72 h. The method, boiled down:
as §1
With `CCc1cc(Nc2ncc(-n3cccn3)c(Nc3ccccc3P(C)(C)=O)n2)c(OC)cc1N1CCC(N2CCN(CCOc3cccc4c3CN(C3CCC(=O)NC3=O)C4=O)CC2)CC1` (stereo not shown) [Example E165], the IC50 is above 4000 nM.

In turn, `COc1cc(N2CCC(N3CCN(CCC#Cc4cccc5c4CN(C4CCC(=O)NC4=O)C5=O)CC3)CC2)c(CO)cc1Nc1ncc(Cl)c(Nc2ccccc2P(C)(C)=O)n1` (stereo not shown) [Example E91] registered an IC50 of 305 nM.

Take `COc1cc2c(cc1Nc1ncc(Cl)c(Nc3ccccc3P(C)(C)=O)n1)CCN(C1CCN(CCCCOc3cccc4c3CN(C3CCC(=O)NC3=O)C4=O)CC1)C2` (stereo not shown) [Example E86]: the IC50 worked out at 212 nM.

With `CCc1cc(Nc2ncc(Cl)c(Nc3ccccc3P(C)(C)=O)n2)c(OC)cc1N1CCC(N2CCN(C(=O)CNc3cccc4c3C(=O)N(C3CCC(=O)NC3=O)C4=O)CC2)CC1` (stereo not shown) [Example E112], the IC50 was above 4000 nM.

`CCc1cc(Nc2ncc(Cl)c(Nc3ccccc3P(C)(C)=O)n2)c(OC)cc1N1CCC(N2CCN([C@H]3C[C@@H](Oc4cc5c(cc4F)C(=O)N(C4CCC(=O)NC4=O)C5)C3)CC2)CC1` (stereo partly shown) [Example E67] yielded an IC50 of 306 nM.

For another test, the system named is A431. Put plainly: Cell proliferation IC50 assay (Cell Titer GLO), A431 cells. The format is cell-based. Conditions: Homo sapiens, A-431; Table 6; A431, 72 h; read-out: A431 IC50. The method in brief: as §1
`CCc1cc(Nc2ncc(-n3cccn3)c(Nc3ccccc3P(C)(C)=O)n2)c(OC)cc1N1CCC(N2CCN(CCOc3cccc4c3CN(C3CCC(=O)NC3=O)C4=O)CC2)CC1` (stereo not shown) [Example E165]: the IC50 is above 4000 nM.

Regarding `COc1cc(N2CCC(N3CCN(CCC#Cc4cccc5c4CN(C4CCC(=O)NC4=O)C5=O)CC3)CC2)c(CO)cc1Nc1ncc(Cl)c(Nc2ccccc2P(C)(C)=O)n1` (stereo not shown) [Example E91], the IC50 was 1430 nM.

Regarding `COc1cc2c(cc1Nc1ncc(Cl)c(Nc3ccccc3P(C)(C)=O)n1)CCN(C1CCN(CCCCOc3cccc4c3CN(C3CCC(=O)NC3=O)C4=O)CC1)C2` (stereo not shown) [Example E86], the IC50 turned out to be 1670 nM.

On to `CCc1cc(Nc2ncc(Cl)c(Nc3ccccc3P(C)(C)=O)n2)c(OC)cc1N1CCC(N2CCN(C(=O)CNc3cccc4c3C(=O)N(C3CCC(=O)NC3=O)C4=O)CC2)CC1` (stereo not shown) [Example E112], for which the IC50 worked out at 1370 nM.

`CCc1cc(Nc2ncc(Cl)c(Nc3ccccc3P(C)(C)=O)n2)c(OC)cc1N1CCC(N2CCN([C@H]3C[C@@H](Oc4cc5c(cc4F)C(=O)N(C4CCC(=O)NC4=O)C5)C3)CC2)CC1` (stereo partly shown) [Example E67]: the IC50 is 2490 nM.

By IC50 is commonly meant the concentration that gives 50% inhibition.
